Calls of active or inactive are those of the source. The rule behind the calls is not given here.
How the values were obtained:
[1] = target: C-X-C chemokine receptor type 4 (Homo sapiens, UniProt P61073); test: Antagonist activity at CXCR4 receptor in human CCRF-CEM cells assessed as inhibition of SDF-1alpha-induced calcium release preincubated for 25 mins followed by SDF-1alpha addition and monitered for 90 sec; format: functional, cell-based
[2] = target: Cytochrome P450 3A4 (Homo sapiens, UniProt P08684); test: Inhibition of CYP3A4 (unknown origin); format: ADME
[3] = Metabolic stability in human liver microsomes assessed as parent compound remaining incubated for 10 mins in presence of NADPH; format: ADME, Microsome; details: read-out: Stabilty
[4] = target: T1, C-C chemokine receptor type 7 (Homo sapiens) (UniProt P32248); test: Antagonist activity at CCR7 (unknown origin) assessed as inhibition of ligand-induced calcium flux measured upto 10 uM; format: functional; details: dose microM <=10
T1 sequence (whole entry): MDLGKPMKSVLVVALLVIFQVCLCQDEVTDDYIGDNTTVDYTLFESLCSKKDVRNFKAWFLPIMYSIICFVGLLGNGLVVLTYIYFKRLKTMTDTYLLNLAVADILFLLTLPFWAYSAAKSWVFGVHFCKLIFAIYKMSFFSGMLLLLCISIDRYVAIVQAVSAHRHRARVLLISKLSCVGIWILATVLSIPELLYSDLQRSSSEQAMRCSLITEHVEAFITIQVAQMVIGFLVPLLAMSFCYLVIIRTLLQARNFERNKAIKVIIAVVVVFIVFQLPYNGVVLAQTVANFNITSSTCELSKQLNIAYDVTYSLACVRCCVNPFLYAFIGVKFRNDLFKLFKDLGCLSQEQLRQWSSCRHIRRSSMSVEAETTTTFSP

[5] = AUC (0 to t) in CD-1 mouse at 30 mg/kg, po or at 3 mg/kg, iv measured after 8 hrs by LC-MS/MS analysis; format: ADME, organism-based; set-up: time 8 hrs, dose 30 mg/kg; details: in vivo
[6] = target: Voltage-gated inwardly rectifying potassium channel KCNH2 (Homo sapiens, UniProt Q12809); test: Inhibition of human ERG by automated patch clamp method
[7] = target: C-C chemokine receptor type 5 (Homo sapiens) (UniProt P51681); test: Antagonist activity at CCR5 (unknown origin) assessed as inhibition of ligand-induced calcium flux measured upto 10 uM; format: functional; details: dose microM <=10
[8] = target: T2, C-X-C chemokine receptor type 2 (Homo sapiens) (UniProt P25025); test: Antagonist activity at CXCR2 (unknown origin) assessed as inhibition of ligand-induced calcium flux measured upto 10 uM; format: functional; details: dose microM <=10
T2 sequence (whole entry): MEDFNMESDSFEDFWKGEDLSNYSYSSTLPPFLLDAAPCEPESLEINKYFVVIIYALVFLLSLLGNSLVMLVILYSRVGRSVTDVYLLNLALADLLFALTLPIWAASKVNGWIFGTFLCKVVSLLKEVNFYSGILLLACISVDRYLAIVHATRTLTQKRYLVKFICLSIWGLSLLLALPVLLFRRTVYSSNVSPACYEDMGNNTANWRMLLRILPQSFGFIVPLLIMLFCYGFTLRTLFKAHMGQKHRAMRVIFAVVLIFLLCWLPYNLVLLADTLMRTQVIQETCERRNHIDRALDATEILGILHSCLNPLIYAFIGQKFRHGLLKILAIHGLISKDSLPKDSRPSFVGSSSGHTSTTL

[9] = Volume of distribution in CD-1 mouse at 30 mg/kg, po or at 3 mg/kg, iv by UPLC-MS/MS analysis; format: ADME, organism-based; details: in vivo
[10] = Metabolic stability in rat liver microsomes assessed as parent compound remaining incubated for 10 mins in presence of NADPH; format: ADME, Microsome; details: read-out: Stabilty
[11] = Cmax in CD-1 mouse at 30 mg/kg, po or at 3 mg/kg, iv by UPLC-MS/MS analysis; format: ADME, organism-based; set-up: dose 30 mg/kg; details: in vivo
[12] = Permeability of the compound at pH 7.4 incubated for 4 hrs by PAMPA; format: ADME; details: read-out: permeability
[13] = target: T3, C-X-C chemokine receptor type 3 (Homo sapiens) (UniProt P49682); test: Antagonist activity at CXCR3 (unknown origin) assessed as inhibition of ligand-induced calcium flux measured upto 10 uM; format: functional; details: dose microM <=10
T3 sequence (whole entry): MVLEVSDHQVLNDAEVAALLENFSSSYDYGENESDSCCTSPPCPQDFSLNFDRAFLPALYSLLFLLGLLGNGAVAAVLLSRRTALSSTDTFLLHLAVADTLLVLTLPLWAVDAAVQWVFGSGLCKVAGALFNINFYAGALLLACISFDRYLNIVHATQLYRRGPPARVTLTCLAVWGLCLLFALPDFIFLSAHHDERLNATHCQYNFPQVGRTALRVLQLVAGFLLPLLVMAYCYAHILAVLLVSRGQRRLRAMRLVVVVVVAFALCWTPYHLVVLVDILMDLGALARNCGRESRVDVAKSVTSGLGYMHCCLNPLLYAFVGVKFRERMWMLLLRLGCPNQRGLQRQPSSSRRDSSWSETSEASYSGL

[14] = Metabolic stability in mouse liver microsomes assessed as parent compound remaining incubated for 10 mins in presence of NADPH; format: ADME, Microsome; details: read-out: Stabilty
[15] = Half life in CD1 mouse at 30 mg/kg, po or at 3 mg/kg, iv measured after 8 hrs by LC-MS/MS analysis; format: ADME, organism-based; details: in vivo
[16] = cells; details: Homo sapiens, CCRF-CEM
Description: Antagonist activity at muscarinic acetylcholine receptor in human CCRF-CEM cells assessed as inhibition of acetylcholine-induced calcium release preincubated for 25 mins followed by acetylcholine addition and monitered for 90 sec

[17] = C8h in CD-1 mouse at 30 mg/kg, po or at 3 mg/kg, iv measured up to 8 hrs by UPLC-MS/MS analysis; details: in vivo
[18] = target: T4, C-X-C chemokine receptor type 1 (Homo sapiens) (UniProt P25024); test: Antagonist activity at CXCR1 (unknown origin) assessed as inhibition of ligand-induced calcium flux measured upto 10 uM; format: functional; details: dose microM <=10
T4 sequence (whole entry): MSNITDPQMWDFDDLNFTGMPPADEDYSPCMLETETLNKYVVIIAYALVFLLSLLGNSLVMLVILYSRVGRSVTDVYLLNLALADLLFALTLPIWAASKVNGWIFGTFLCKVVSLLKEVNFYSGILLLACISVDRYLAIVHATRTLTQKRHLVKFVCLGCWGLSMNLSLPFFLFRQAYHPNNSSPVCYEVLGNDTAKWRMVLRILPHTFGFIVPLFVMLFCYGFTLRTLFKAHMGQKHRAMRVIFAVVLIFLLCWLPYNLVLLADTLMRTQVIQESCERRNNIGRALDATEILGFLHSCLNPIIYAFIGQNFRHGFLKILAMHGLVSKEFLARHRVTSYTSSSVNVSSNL

[19] = Oral bioavailability in CD1 mouse at 30 mg/kg measured after 8 hrs by LC-MS/MS analysis; format: ADME, organism-based; details: in vivo
[20] = Clearance in CD-1 mouse at 30 mg/kg, po or at 3 mg/kg, iv by UPLC-MS/MS analysis; format: ADME, organism-based; details: in vivo
[21] = target: T5, C-C chemokine receptor type 6 (Homo sapiens) (UniProt P51684); test: Antagonist activity at CCR6 (unknown origin) assessed as inhibition of ligand-induced calcium flux measured upto 10 uM; format: functional; details: dose microM <=10
T5 sequence (whole entry): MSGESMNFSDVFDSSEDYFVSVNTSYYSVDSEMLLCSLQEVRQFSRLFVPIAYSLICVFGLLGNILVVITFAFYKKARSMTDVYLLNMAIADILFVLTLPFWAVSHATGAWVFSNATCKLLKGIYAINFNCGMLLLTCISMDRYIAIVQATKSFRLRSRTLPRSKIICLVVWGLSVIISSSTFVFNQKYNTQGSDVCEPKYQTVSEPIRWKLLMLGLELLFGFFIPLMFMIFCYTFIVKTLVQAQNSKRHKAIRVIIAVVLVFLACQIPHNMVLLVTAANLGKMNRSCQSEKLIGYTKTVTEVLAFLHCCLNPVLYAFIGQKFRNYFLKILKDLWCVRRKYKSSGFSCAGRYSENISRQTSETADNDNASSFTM

[22] = target: T6, C-C chemokine receptor type 4 (Homo sapiens) (UniProt P51679); test: Antagonist activity at CCR4 (unknown origin) assessed as inhibition of ligand-induced calcium flux measured upto 10 uM; format: functional; details: dose microM <=10
T6 sequence (whole entry): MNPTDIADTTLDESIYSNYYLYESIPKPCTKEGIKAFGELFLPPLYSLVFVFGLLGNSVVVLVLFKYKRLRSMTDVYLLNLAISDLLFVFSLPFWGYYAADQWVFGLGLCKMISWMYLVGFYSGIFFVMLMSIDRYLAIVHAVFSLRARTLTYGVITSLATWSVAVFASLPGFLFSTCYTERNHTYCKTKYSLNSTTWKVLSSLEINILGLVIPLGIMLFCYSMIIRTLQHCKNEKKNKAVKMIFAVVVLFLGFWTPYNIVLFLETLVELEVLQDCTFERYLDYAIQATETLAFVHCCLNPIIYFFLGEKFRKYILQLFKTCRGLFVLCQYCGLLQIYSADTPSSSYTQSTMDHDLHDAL

[23] = target: Cytochrome P450 2D6 (Homo sapiens, UniProt P10635); test: Inhibition of human recombinant CYP2D6 expressed in insect cells using AMMC as substrate preincubated for 30 mins followed by NADPH regenerating system addition and measured after 45 mins by fluorescence based assay; format: ADME
Chain of Cytochrome P450 2D6 (P10635 whole entry): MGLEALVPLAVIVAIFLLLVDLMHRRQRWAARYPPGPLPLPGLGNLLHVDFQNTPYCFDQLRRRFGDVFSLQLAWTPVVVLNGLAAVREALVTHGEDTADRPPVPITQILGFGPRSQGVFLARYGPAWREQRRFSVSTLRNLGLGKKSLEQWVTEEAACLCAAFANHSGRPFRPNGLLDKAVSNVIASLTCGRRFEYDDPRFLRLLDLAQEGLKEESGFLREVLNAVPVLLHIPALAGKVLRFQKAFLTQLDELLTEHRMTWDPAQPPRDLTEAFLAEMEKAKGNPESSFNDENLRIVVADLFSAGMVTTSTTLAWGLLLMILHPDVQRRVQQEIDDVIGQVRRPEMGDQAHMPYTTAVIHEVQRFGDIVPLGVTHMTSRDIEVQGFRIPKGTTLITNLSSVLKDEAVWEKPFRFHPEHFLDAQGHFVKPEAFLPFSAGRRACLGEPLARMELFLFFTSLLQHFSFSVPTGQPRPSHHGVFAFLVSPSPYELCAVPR

Chain of C-X-C chemokine receptor type 4 (P61073 whole entry): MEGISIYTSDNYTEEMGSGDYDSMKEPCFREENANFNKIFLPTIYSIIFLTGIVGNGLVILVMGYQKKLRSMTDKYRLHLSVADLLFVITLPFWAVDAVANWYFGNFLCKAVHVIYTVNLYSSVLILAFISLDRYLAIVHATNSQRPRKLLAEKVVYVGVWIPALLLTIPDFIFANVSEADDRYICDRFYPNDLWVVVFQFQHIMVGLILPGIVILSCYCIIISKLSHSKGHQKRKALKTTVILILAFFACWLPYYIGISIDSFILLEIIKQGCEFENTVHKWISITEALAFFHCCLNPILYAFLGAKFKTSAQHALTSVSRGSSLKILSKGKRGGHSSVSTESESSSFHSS
Chain of Cytochrome P450 3A4 (P08684 whole entry): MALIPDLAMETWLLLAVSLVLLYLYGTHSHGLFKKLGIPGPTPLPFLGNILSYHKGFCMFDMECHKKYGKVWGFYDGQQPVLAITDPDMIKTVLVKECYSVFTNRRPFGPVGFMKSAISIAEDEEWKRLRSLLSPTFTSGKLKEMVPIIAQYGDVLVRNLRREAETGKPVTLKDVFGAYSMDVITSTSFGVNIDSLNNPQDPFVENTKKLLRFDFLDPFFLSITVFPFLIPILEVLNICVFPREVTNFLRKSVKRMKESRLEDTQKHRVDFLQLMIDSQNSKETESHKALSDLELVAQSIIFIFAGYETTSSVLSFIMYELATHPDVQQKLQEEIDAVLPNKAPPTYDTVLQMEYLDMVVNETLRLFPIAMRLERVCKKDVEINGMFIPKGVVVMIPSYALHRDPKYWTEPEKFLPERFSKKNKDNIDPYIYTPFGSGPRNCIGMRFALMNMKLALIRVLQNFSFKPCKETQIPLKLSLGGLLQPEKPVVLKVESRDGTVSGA
Chain of Voltage-gated inwardly rectifying potassium channel KCNH2 (Q12809 whole entry): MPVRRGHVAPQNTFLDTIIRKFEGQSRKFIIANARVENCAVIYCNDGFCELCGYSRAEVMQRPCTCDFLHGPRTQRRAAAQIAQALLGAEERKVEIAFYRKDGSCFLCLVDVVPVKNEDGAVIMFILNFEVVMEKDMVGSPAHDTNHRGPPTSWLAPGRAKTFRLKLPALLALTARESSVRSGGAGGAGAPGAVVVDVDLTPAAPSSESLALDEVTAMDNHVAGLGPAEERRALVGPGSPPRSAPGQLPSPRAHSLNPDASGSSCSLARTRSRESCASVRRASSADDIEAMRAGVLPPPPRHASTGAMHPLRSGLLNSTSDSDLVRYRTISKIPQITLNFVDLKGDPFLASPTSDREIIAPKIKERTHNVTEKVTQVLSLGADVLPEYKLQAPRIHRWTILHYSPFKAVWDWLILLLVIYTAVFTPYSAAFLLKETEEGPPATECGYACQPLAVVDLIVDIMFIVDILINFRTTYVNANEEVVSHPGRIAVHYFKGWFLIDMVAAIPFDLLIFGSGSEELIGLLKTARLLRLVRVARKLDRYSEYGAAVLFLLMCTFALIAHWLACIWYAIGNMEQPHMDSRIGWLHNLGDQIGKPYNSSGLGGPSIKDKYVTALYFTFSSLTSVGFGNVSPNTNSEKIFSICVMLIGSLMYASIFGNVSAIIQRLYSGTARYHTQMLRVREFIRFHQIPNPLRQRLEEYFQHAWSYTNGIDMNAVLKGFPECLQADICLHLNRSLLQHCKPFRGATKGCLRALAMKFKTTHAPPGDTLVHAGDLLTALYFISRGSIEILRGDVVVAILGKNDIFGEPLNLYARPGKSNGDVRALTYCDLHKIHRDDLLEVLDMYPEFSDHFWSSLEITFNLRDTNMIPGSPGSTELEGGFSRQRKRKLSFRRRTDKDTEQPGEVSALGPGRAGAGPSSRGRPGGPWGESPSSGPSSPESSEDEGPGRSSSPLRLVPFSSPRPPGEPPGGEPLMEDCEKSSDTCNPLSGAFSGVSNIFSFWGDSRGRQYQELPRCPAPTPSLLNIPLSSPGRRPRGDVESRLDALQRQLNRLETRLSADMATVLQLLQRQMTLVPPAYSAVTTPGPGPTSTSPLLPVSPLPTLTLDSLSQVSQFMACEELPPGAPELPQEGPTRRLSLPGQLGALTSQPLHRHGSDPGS
Chain of C-C chemokine receptor type 5 (Homo sapiens) (P51681 whole entry, looked up): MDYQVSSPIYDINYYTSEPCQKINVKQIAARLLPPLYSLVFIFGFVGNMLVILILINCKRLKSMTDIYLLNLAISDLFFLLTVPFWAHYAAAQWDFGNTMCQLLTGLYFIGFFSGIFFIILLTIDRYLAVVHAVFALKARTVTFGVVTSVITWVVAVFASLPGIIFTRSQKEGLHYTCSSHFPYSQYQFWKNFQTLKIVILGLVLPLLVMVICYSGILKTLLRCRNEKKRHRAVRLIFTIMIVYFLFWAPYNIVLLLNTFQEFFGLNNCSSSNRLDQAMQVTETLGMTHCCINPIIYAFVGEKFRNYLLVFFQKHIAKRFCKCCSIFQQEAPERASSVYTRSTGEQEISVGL

CN1CCN(Nc2cccc3c2CC(CN(C)[C@H]2CCCc4cccnc42)NC3)CC1 (single isomer, unassigned)
IC50 [1]: 0.0474 µM
IC50 [2]: > 20 µM
remaining at 10 min [3]: 73.6%
Activity [4]: inactive
AUC(0-t) at 8 h [5]: 4000 ng·h/mL
IC50 [6]: 6.8 µM
Activity [7]: inactive
Activity [8]: inactive
Vd [9]: 9.35 L/kg
remaining at 10 min [10]: 21%
Cmax [11]: 791 ng/mL
Papp at 4 h [12]: 23.5 ×10⁻⁶ cm/s
Activity [13]: inactive
remaining at 10 min [14]: 85.8%
half-life [15]: 3.5 h
IC50 [16]: > 16.7 µM
C8h at 8 h [17]: 297 ng/mL
Activity [18]: inactive
bioavailability [19]: 24%
clearance [20]: 30.5 mL/min/kg
Activity [21]: inactive
Activity [22]: inactive
IC50 [23]: > 20 µM

— ChEMBL document CHEMBL4842390, “Amino-Heterocycle Tetrahydroisoquinoline CXCR4 Antagonists with Improved ADME Profiles via Late-Stage Buchwald Couplings” (ACS Med Chem Lett, 2021)
